# Assay results taken from article PMC8342319, “Predicting blood-to-plasma concentration ratios of drugs from chemical structures and volumes of distribution in humans” (Molecular Diversity, 2021).
# Like-named read-outs stand apart in the source and are kept apart here.
# Columns and labels:
# [1] = human, cited from earlier work
# [2] = human
# [3] = cited from earlier work
# [4] = tested on: plasma protein; conditions: cited from earlier work; for fp_Human (free fraction in plasma): human, collected value, median if multiple values were reported, ref: Table S1
# [5] = intravenous, median if multiple values were reported, ref numbers in Table S1
# [6] = intravenous, median if multiple values reported, Reference of Table S1
# [7] = human, intravenous, median if multiple values were reported, ref numbers in Table S1
Structure (SMILES),"in vivo Vd_(L/kg)_Human [1, 5] [L/kg]","in vivo CL_(L/hr/kg)_Human [3, 7] [L/h/kg]",further results
CC(C)n1c(/C=C/C(O)CC(O)CC(=O)O)c(-c2ccc(F)cc2)c2ccccc21 (stereo not shown) [Fluvastatin],0.420,,in vivo MRT_(hr)_Human [2]: 0.438 h
O=C(c1ccc(OCCN2CCCCC2)cc1)c1c(-c2ccc(O)cc2)sc2cc(O)ccc12 [Raloxifene],,,"in vivo Vd_(L/kg)_Human [1, 6]: 36.900 L/kg; in vivo MRT_(hr)_Human [2]: 41.837 h"
Cc1ccnc2c1NC(=O)c1cccnc1N2C1CC1 [Nevirapine],1.300,0.018,
O=C1Nc2ccc(Cl)cc2C(c2ccccc2)=NC1O (stereo not shown) [Oxazepam],,,"in vivo CL_(L/hr/kg)_Human ([3]; in vivo, iv): 0.066 L/h/kg"
CCN1CCN(C(=O)N[C@@H](C(=O)N[C@@H]2C(=O)N3[C@@H]2SC(C)(C)[C@@H]3C(=O)O)c2ccccc2)C(=O)C1=O [Piperacillin],,,"in vivo Vd_(L/kg)_Human [1, 6]: 0.270 L/kg; in vivo MRT_(hr)_Human [2]: 1.125 h"
O=C(NCC1CCCCN1)c1cc(OCC(F)(F)F)ccc1OCC(F)(F)F (stereo not shown) [Flecainide],6.100,,in vivo MRT_(hr)_Human [2]: 20.748 h
Cc1nc2n(c(=O)c1CCN1CCC(c3noc4cc(F)ccc34)CC1)CCCC2 [Risperidone],,,"fp_Human ([4]; free fraction in human plasma, median if multiple values reported, Reference of Table S1): 0.100"
CCN(CC)CC(=O)Nc1c(C)cccc1C [Lidocaine],,0.756,
CC#CCC(C)[C@H](O)/C=C/[C@@H]1[C@H]2C/C(=C/CCCC(=O)O)C[C@H]2C[C@H]1O (stereo partly shown) [Iloprost],0.385,0.960,fp_Human (free fraction in plasma) [4]: 0.400
CCC[C@@H]1C[C@@H](C(=O)N[C@@H]([C@H]2O[C@H](SC)[C@H](O)[C@@H](O)[C@H]2O)[C@H](C)Cl)N(C)C1 [Clindamycin],,0.270,
CN(C)CCCN1c2ccccc2CCc2ccccc21 [Imipramine],12.000,,
COCCOC(=O)C1=C(C)NC(C)=C(C(=O)OC(C)C)C1c1cccc([N+](=O)[O-])c1 (stereo not shown) [Nimodipine],1.000,,in vivo MRT_(hr)_Human [2]: 1.111 h
COc1ccc2[nH]c([S+]([O-])Cc3ncc(C)c(OC)c3C)nc2c1 (stereo not shown) [Omeprazole],0.240,0.504,
C[C@H]1C[C@H]2[C@@H]3CCC4=CC(=O)C=C[C@]4(C)[C@@]3(F)[C@@H](O)C[C@]2(C)[C@@]1(O)C(=O)CO [Betamethasone],,0.168,
CN1CC[C@]23c4c5ccc(O)c4O[C@H]2[C@@H](O)C=C[C@H]3[C@H]1C5 [Morphine],,1.500,
CCOC(=O)c1ncn2c1CN(C)C(=O)c1cc(F)ccc1-2 [Flumazenil],,0.960,
CCCC1O[C@@H]2C[C@H]3[C@@H]4CCC5=CC(=O)C=C[C@]5(C)[C@H]4[C@@H](O)C[C@]3(C)[C@]2(C(=O)CO)O1 (stereo partly shown) [Budesonide],3.900,1.200,
COc1cc2nc(N3CCN(C(=O)C4COc5ccccc5O4)CC3)nc(N)c2cc1OC (stereo not shown) [Doxazosin],1.300,,in vivo MRT_(hr)_Human [2]: 13.542 h
O=c1[nH]cc(F)c(=O)[nH]1 [Fluorouracil],,,fp_Human (free fraction in plasma) [4]: 0.770
OC(CCN1CCCCC1)(c1ccccc1)C1CC2C=CC1C2 (stereo not shown) [Biperiden],9.100,,in vivo MRT_(hr)_Human [2]: 12.639 h
CCN(CC)C(=O)/C(C#N)=C/c1cc(O)c(O)c([N+](=O)[O-])c1 [Entacapone],0.270,0.720,
Cc1cc(NS(=O)(=O)c2ccc(N)cc2)no1 [Sulfamethoxazole],,,"in vivo CL_(L/hr/kg)_Human ([3]; human, intravenous, median if multiple values reported, Reference of Table S1): 0.020 L/h/kg"
Oc1ncnc2[nH]ncc12 [Allopurinol],0.580,,
O=C(O)P(=O)(O)O [Foscarnet],0.500,0.126,
CCC(C)n1ncn(-c2ccc(N3CCN(c4ccc(OCC5COC(Cn6cncn6)(c6ccc(Cl)cc6Cl)O5)cc4)CC3)cc2)c1=O (stereo not shown) [Itraconazole],7.400,0.306,
Cc1c(OCC(F)(F)F)ccnc1C[S+]([O-])c1nc2ccccc2[nH]1 (stereo not shown) [Lansoprazole],0.280,0.319,

Structure (SMILES),"in vivo Vd_(L/kg)_Human [1, 5] [L/kg]","in vivo CL_(L/hr/kg)_Human [3, 7] [L/h/kg]",further results
CC[C@H]1OC(=O)[C@H](C)[C@@H](O[C@H]2C[C@@](C)(OC)[C@@H](O)[C@H](C)O2)[C@H](C)[C@@H](O[C@@H]2O[C@H](C)C[C@H](N(C)C)[C@H]2O)[C@](C)(O)C[C@@H](C)C(=O)[C@H](C)[C@@H](O)[C@]1(C)O [Erythromycin],,,fp_Human (free fraction in plasma) [4]: 0.220
CN1CCN(C2=Nc3cc(Cl)ccc3Nc3ccccc32)CC1 [Clozapine],1.600,,in vivo MRT_(hr)_Human [2]: 10.667 h
NS(=O)(=O)c1cc(C(=O)O)c(NCc2ccco2)cc1Cl [Furosemide],,0.096,
COc1ccc2c3c1O[C@H]1C(=O)CC[C@@]4(O)[C@@H](C2)N(C)CC[C@]314 [Oxycodone],,0.366,fp_Human (free fraction in plasma) [4]: 0.550
CCN(CC)CCNC(=O)c1ccc(N)cc1 [Procainamide],,,fp_Human [4]: 0.840
CCN(C(C)=O)c1cccc(-c2ccnc3c(C#N)cnn23)c1 [Zaleplon],,,"in vivo Vd_(L/kg)_Human ([1]; in vivo, iv): 1.300 L/kg; in vivo MRT_(hr)_Human [2]: 1.354 h"
COc1ccccc1OCCNCC(O)COc1cccc2[nH]c3ccccc3c12 (stereo not shown) [Carvedilol],1.300,0.495,
C=CCN1CC[C@]23c4c5ccc(O)c4O[C@H]2C(=O)CC[C@@]3(O)[C@H]1C5 [Naloxone],1.700,,
C=CCc1ccccc1OCC(O)CNC(C)C (stereo not shown) [Alprenolol],3.200,0.900,
CN(C)CCC=C1c2ccccc2CCc2ccccc21 [Amitriptyline],8.700,0.593,
C[C@@H](O[C@H]1OCCN(Cc2n[nH]c(=O)[nH]2)[C@H]1c1ccc(F)cc1)c1cc(C(F)(F)F)cc(C(F)(F)F)c1 [Aprepitant],0.940,,
O=C(/C=C/c1c(C(=O)O)[nH]c2cc(Cl)cc(Cl)c12)Nc1ccccc1 [Gavestinel],,,fp_Human [4]: 0.002
COc1ccc2cc([C@H](C)C(=O)O)ccc2c1 [Naproxen],,0.004,
CC1(C)S[C@@H]2[C@H](NC(=O)[C@H](N)c3ccc(O)cc3)C(=O)N2[C@H]1C(=O)O [Amoxicillin],0.250,0.198,
CN(c1nc2ccccc2s1)C1CCN(C[C@H](O)COc2ccc(F)c(F)c2)CC1 [Lubeluzole],,0.102,fp_Human (free fraction in plasma) [4]: 0.003
CC[C@H](C)C(=O)O[C@H]1C[C@@H](C)C=C2C=C[C@H](C)[C@H](CC[C@@H]3C[C@@H](O)CC(=O)O3)[C@H]21 [Lovastatin],0.870,0.432,
C=CC1=C(C(=O)O)N2C(=O)[C@@H](NC(=O)/C(=N\OCC(=O)O)c3csc(N)n3)[C@H]2SC1 [Cefixime],0.240,0.060,
CC(CCc1ccccc1)NCC(O)c1ccc(O)c(C(N)=O)c1 (stereo not shown) [Labetalol],,1.380,fp_Human (free fraction in plasma) [4]: 0.500
CN1C(=O)CN=C(c2ccccc2)c2cc(Cl)ccc21 [Diazepam],,0.023,
CCC1=C(C)CN(C(=O)NCCc2ccc(S(=O)(=O)NC(=O)N[C@H]3CC[C@H](C)CC3)cc2)C1=O [Glimepiride],0.190,0.034,fp_Human (free fraction in plasma) [4]: 0.028
CC(C)NCC(O)COc1ccc(CC(N)=O)cc1 (stereo not shown) [Atenolol],,0.150,
C[C@@H]1C[C@H]2[C@@H]3CCC4=CC(=O)C=C[C@]4(C)[C@@]3(F)[C@@H](O)C[C@]2(C)[C@@]1(O)C(=O)CO [Dexamethasone],,0.198,
CC(C)NCC(O)COc1ccc(COCCOC(C)C)cc1 (stereo not shown) [Bisoprolol],2.400,0.222,fp_Human (free fraction in plasma) [4]: 0.830
CC(=O)Nc1ccc(O)cc1 [Acetaminophen],1.000,,fp_Human (free fraction in plasma) [4]: 0.710
Cc1nnc2n1-c1ccc(Cl)cc1C(c1ccccc1)=NC2 [Alprazolam],0.800,0.044,
CCCCc1oc2ccccc2c1C(=O)c1cc(I)c(OCCN(CC)CC)c(I)c1 [Amiodarone],,0.114,
